From patent US6617117B1, “MAP kinases: polypeptides, polynucleotides and uses thereof” (Medical Research Council, priority 1996, dated 2003)

Legend:
SAPK3 = target: T1, SAPK3 (Rattus norvegicus, UniProt Q63538); assay: Activation of transfected myc epitope-tagged SAPK3 in KB and 293 cells, immunoprecipitation and MBP assay; format: cell-based, human
T1 construct: expressed in transfected cells; host or cells: human KB and 293 cells (vector pSG5)
T1 sequence (Q63538 1-367): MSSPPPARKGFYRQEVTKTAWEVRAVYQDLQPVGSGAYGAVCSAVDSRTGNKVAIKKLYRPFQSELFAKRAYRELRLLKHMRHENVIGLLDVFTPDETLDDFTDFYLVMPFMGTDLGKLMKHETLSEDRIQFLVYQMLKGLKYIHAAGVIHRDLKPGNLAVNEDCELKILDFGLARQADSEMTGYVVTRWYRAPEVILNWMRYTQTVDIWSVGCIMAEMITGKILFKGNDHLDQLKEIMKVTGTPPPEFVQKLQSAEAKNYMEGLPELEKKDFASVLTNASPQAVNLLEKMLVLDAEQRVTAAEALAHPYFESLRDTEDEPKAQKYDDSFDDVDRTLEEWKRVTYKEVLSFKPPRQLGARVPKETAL
Experimental: FIG. 11. SAPK3 is activated by cytokines and cellular stresses in KB and 293 cells. KB cells (A) or 293 cells (B) were transiently transfected with a DNA construct expressing a myc epitope-tagged SAPK3. Cells in DMEM were stimulated for 15 min with 0.5 M sorbitol (an osmotic shock), 20 ng/ml IL-1α, 100 ng/ml TNFa, 0.5 mM sodium arsenite (a chemical stress), 100 ng/ml of EGF or 300 ng/ml TPA, or for 30 min with […] anisomycin or 10 min with 100 ng/ml IGF-1. UV-C irradiation of cells was carried out at 60 J/m2 (KB cells) or 200 J/m2 (293 cells) and the cells then left for a further 30 min at 37° C. before lysis. The myc epitope-tagged SAPK3 was immunoprecipitated from cell lysates using the 9E10 monoclonal antibody and assayed with MBP as substrate. […] After UV-C irradiation, SAPK3 activity in the extracts was 0.18 U/mg (KB cells) and 0.1 U/mg (293 cells).
Cell culture and transient transfections. 293, KB and COS-7 cells were cultured in Dulbecco's modified Eagles' Medium (DMEM) supplemented with 10% foetal calf serum, at 37° C., in an atmosphere of 5% CO2. Transfections of 293 cells were carried out using the calcium-phosphate method. […]

MAPKAP-K2 = conditions: every mammalian cell so far examined; cited from earlier work
MAPKAP-K3 = conditions: every mammalian cell so far examined; cited from earlier work
SAPK4 = target: T2, SAPK4 (Homo sapiens, UniProt O15264); assay: Inhibition of SAPK4, MBP phosphorylation (FIG. 9); format: biochemical; design: made in house; host or cells: E. coli BL21(DE3)
T2 sequence (O15264 1-365): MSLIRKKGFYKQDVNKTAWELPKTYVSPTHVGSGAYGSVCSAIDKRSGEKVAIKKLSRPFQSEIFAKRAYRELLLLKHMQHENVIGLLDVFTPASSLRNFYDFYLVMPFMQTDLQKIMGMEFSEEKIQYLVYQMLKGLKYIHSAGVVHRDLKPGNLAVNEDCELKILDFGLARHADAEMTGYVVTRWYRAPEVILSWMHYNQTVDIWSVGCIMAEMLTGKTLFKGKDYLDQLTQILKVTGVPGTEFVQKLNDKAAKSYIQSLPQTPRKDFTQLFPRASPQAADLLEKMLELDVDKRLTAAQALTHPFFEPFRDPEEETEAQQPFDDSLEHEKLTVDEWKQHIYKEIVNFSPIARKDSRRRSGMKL
Experimental: SAPK4 is assayed routinely by the phosphorylation of MBP. […] After washing and drying the papers (Alessi et al, 1995 Meth. Enzymol. 255, 279-290) ^32P radioactivity incorporated into MBP is measured.

## C[S+]([O-])c1ccc(-c2nc(-c3ccncc3)c(-c3ccc(F)cc3)[nH]2)cc1 (centres unmarked) [SB 203580]
SAPK3
  Prevention of activation of transfected SAPK3 by osmotic shock: did not prevent
MAPKAP-K2
  Suppression of stress- and cytokine-induced activation of MAPKAP-K2: 80-95%
MAPKAP-K3
  Suppression of stress- and cytokine-induced activation of MAPKAP-K3: 80-95%
SAPK4; bacterially expressed SAPK4 activated by SKK3 in vitro
  Inhibition of SAPK4: not inhibited
SAPK4; dephosphorylated form, <0.1% of the activity of the phosphorylated form, data not shown
  Inhibition of dephosphorylated form of SAPK4: failed to inhibit
